Measurements reported in US10987357B2, “Aerosolized fluoroquinolones and uses thereof” (Horizon Orphan, LLC, priority 2005, dated 2021).
Like-named read-outs stand apart in the source and are kept apart here.

Legend:
[1] = tested on: P. aeruginosa strain PAM 1723; test: Mouse lung infection efficacy model; details: Pseudomonas aeruginosa, PAM1723, in Mus musculus
Description: The inoculum is adjusted to ca. 5×10^6 CFU/ml by correlation of absorbance at 600 nm with predetermined plate counts. […] On day 5, mice are infected by an intratracheal instillation of 0.05 ml of inoculum while under isoflurane anesthesia (5% isoflurane in oxygen running at 4 L/min). […] Mice are sacrificed 1 and 4 hours after treatment, their lungs removed, homogenized and plated to determine colony counts.

physchem = details: for Initial Solution pH / Initial Solution Appearance: 10 mg/mL in sterile water; for Initial Solution Appearance: room temperature; for After pH Adjustment Appearance / After pH Adjustment pH / pH of final solution: 10 mg/mL; for After pH Adjustment Appearance / After pH Adjustment pH: titrated with 1N HCl; for solubility at 10 min: aqueous buffer, thermodynamic from solid; for solubility on titration with 1N HCl: pH 1.5
Description: A 2 to 20 mg sample of each antibiotic was weighed into sterile plastic tubes and brought up with a volume of sterile water to make a 10 mg/mL solution or suspension of the antibiotic. Samples were incubated for approximately 10 minutes at room temperature with occasional mixing, prior to further handling.
The insoluble solutions were titrated with 1N HCl to the point of visible solubility, and the pH of the solubilized solution determined.
After the pH adjustment, and following a further 10 minute incubation period with occasional mixing, the final appearance of the solutions was determined, just prior to the aerosol tolerability and taste test.

[2] = Rat pharmacokinetic model (IV vs microspray aerosol, intratracheal); format: in vivo, rats; details: for AUC: epithelial lining fluid (ELF)
Description: […] Blood samples are taken at various times over 3 hours to determine the plasma pharmacokinetic parameters. […] The plasma and tissue concentrations are determined by an HPLC method and the data are then fit using WinNonlin.

[3] = tested on: methicillin resistant Staphylococcus aureus (MRSA); details: cited from earlier work; for MRSA MIC90: Table 6
[4] = in vivo
Description: In the second test, the tolerability and taste of a small aerosol sample from a 0.5 ml aliquot of the test formulation was determined in a single healthy human volunteer, following nebulization in a PARI eFlow nebulizer (Table 12).
The tolerability and taste of the drug during a very brief administration period and for a period of 10 minutes post administration were monitored. Tolerability parameters were of the following types: (i) cough, cough sensation, or sneezing (ii) irritation, burning or tightness of throat, (ii) irritation or runniness in nasal passages or eyes, (iii) irritation, burning or tightness of the lungs or shortness of breadth, and (iv) dizziness, headache, nausea or other systemic effects.

[5] = tested on: Streptococcus pneumonia (Sp); details: Table 6; cited from earlier work
MSSA = details: Table 6; cited from earlier work
[6] = tested on: Pseudomonas aeruginosa (Pa); details: cited from earlier work; for Pa MIC90: Table 6
Dissolution rate studies = details: 37° C.
elastase = details: cited from earlier work
[7] = 1 h, read-out: DeltaLOG CPU 1 hr, route IT, dose 25 mg/kg, 1 hr post-drug administration
[8] = 4 h, read-out: DeltaLOG CPU 4 hr, route IT, dose 25 mg/kg, 4 hr post-drug administration
[9] = ip, 1 h, read-out: DeltaLOG CPU 1 hr, route IP, dose 25 mg/kg, 1 hr post-drug administration
[10] = ip, 4 h, read-out: DeltaLOG CPU 4 hr, route IP, dose 25 mg/kg, 4 hr post-drug administration
[11] = rat, inhaled or intranasal, IT, 10 mg/kg
[12] = 2-10 minutes, 500 ml pH 7.4 Tris buffer, paddles 100 rpm
[13] = 10-30 minutes, pH 7.4 Tris buffer

Row | Molecule | log reduction at 25 mg/kg [1, 7] | log reduction at 25 mg/kg [1, 8] | Initial Solution pH (physchem) | Initial Solution Appearance (physchem) | After pH Adjustment Appearance (physchem) | After pH Adjustment pH (physchem) | solubility at 10 min (physchem) | pH of final solution (physchem) | MRSA MIC90 [3] | Aerosol Tolerability and Taste [4] | SP MIC90 [5] | MSSA MIC90 (MSSA) | Pa MIC90 [6] | also measured
1 | COc1c(N2CCNC(C)C2)c(F)cc2c(=O)c(C(=O)O)cn(C3CC3)c12 (centres unmarked) [Gatifloxacin] | 1.48 | 2.11 | 7.0 | white, cloudy, visible | slight yellow color, | 3.0 | > 10 mg/mL | 3.0 | 4 mg/L | moderate bitter unpleasant taste, | 0.5 mg/L | 0.125 mg/L | 16 mg/L | log reduction at 25 mg/kg [1, 9]: 0.34; log reduction at 25 mg/kg [1, 10]: 0.02; F, % from Lung vs. IV ([2]; IT, 10 mg/kg): 100%; AUC [2, 11]: 54.7 µg·h/mL; AUC ([2]; rat, iv, 10 mg/kg): 5.32 µg·h/mL; cough on aerosol exposure [4]: associated with cough; rank of potency against Pa [6]: most potent
2 | C[C@H]1COc2c(N3CCN(C)CC3)c(F)cc3c(=O)c(C(=O)O)cn1c23.O=C(O)c1cc2ccccc2c(Cc2c(O)c(C(=O)O)cc3ccccc23)c1O [levofloxacin pamoate] | – | – | – | – | – | – | – | – | – | – | – | – | – | dissolution rate (Dissolution rate studies; [12]): approximately 0.146 mg/min; dissolution rate (Dissolution rate studies; 10-60 minutes, pH 7.4 Tris buffer): 0.0331 mg/min
3 | DNase | – | – | – | – | – | – | – | – | – | – | – | – | – | increase of sol elastase activity after treatment of CF sputum (elastase): 190%
4 | CCn1cc(C(=O)O)c(=O)c2cc(F)c(N3CCNC(C)C3)c(F)c21 (centres unmarked) [Lomefloxacin] | – | – | 4.2 | cloudy, visible sediment | transparent, no sediment, | – | > 10 mg/mL | 4.2 | >32 mg/L | chemical taste, somewhat bitter, | 16 mg/L | 2 mg/L | 32 mg/L | –
5 | N[C@@H]1[C@H]2CN(c3nc4c(cc3F)c(=O)c(C(=O)O)cn4-c3ccc(F)cc3F)C[C@@H]12 [Trovafloxacin] | – | – | 4.2 | colorless, slightly cloudy, no | – | – | > 10 mg/mL | 4.2 | 8 mg/L | – | 0.25 mg/L | 0.06 mg/L | >32 mg/L | –
6 | CCCCCCCCCCCCCCCCCC(=O)O.C[C@H]1COc2c(N3CCN(C)CC3)c(F)cc3c(=O)c(C(=O)O)cn1c23 [levofloxacin stearate] | – | – | – | – | – | – | – | – | – | – | – | – | – | dissolution rate (Dissolution rate studies; [12]): 0.499 mg/min; dissolution rate (Dissolution rate studies; [13]): 0.161 mg/min
7 | C[C@H]1COc2c(N3CCN(C)CC3)c(F)cc3c(=O)c(C(=O)O)cn1c23.O=C(O)c1ccc2ccccc2c1O [levofloxacin xinafoate] | – | – | – | – | – | – | – | – | – | – | – | – | – | dissolution rate (Dissolution rate studies; [12]): approximately 1.24 mg/min; dissolution rate (Dissolution rate studies; [13]): 0.28 mg/min
8 | O=C(O)CCCC[C@@H](S)CCS (racemic) [DHLA, dihydrolipoic acid] | – | – | – | – | – | – | – | – | – | – | – | – | – | effect on elastase activity after treatment of CF sputum (elastase): did not increase elastase activity
9 | C[C@@H]1CN(c2c(F)c(F)c3c(=O)c(C(=O)O)cn(C4CC4)c3c2F)C[C@H](C)N1 [Orbifloxacin] | – | – | – | white, cloudy, visible | colorless, transparent, no | 1.7 | > 10 mg/mL | 1.7 | – | very acidic, strong bitter unpleasant | 2 mg/L | 2 mg/L | >32 mg/L | cough on aerosol exposure [4]: associated with cough
10 | NC1CCN(c2nc3c(cc2F)c(=O)c(C(=O)O)cn3-c2ccc(F)cc2F)C1 (centres unmarked) [Tosufloxacin] | 0.48 | 0.24 | 3.5 | white, turbid, visible | white, cloudy, less turbid, | 1.5 | – | 1.5 | >16 mg/L | – | 0.5 mg/L | 0.125 mg/L | 16 mg/L | log reduction at 25 mg/kg [1, 9]: 0; log reduction at 25 mg/kg [1, 10]: -1.33; solubility on titration with 1N HCl (physchem): solubility was not reached by pH 1.5
11 | C[C@@H]1CN(c2c(F)c(N)c3c(=O)c(C(=O)O)cn(C4CC4)c3c2F)C[C@H](C)N1 [Sparfloxacin] | 1.56 | 0.81 | 5.0 | bright yellow, turbid, visible | bright yellow, densely | 1.5 | – | 1.5 | 16 mg/L | – | 0.5 mg/L | 0.125 mg/L | 32 mg/L | log reduction at 25 mg/kg [1, 9]: 0.85; log reduction at 25 mg/kg [1, 10]: -0.09; solubility on titration with 1N HCl (physchem): solubility was not reached by pH 1.5
12 | CO/N=C1\CN(c2nc3c(cc2F)c(=O)c(C(=O)O)cn3C2CC2)CC1CN (centres unmarked) [Gemifloxacin] | 3.2 | 2.28 | 4.7 | colorless, transparent, no | – | – | > 10 mg/mL | – | 2 mg/L | strong unpleasant bitter taste, strong | 0.06 mg/L | 0.06 mg/L | 8 mg/L | F, % from Lung vs. IV ([2]; IT, 10 mg/kg): 86%; AUC [2, 11]: 536 µg·h/mL; AUC ([2]; rat, iv, 8 mg/kg): 3.72 µg·h/mL; half-life ([2]; rat, serum, iv, 8 mg/kg, read-out: Serum t1/2 (converted)): 1.04 h; rank of potency against MRSA [3]: most potent; rank of potency against Pa [6]: most potent
13 | reduced rhTrx: stable reduced form of recombinant human thioredoxin (protein, UniProt P10599 2-105, looked up, reduced form) Thioredoxin: VKQIESKTAFQEALDAAGDKLVVVDFSATWCGPCKMIKPFFHSLSEKYSNVIFLEVDVDDCQDVASECEVKCMPTFQFFKKGQKVGEFSGANKEKLEATINELV | – | – | – | – | – | – | – | – | – | – | – | – | – | increase of sol elastase activity after treatment of CF sputum (elastase): 60%
